Results: US10023591B2, “Heterocyclic derivatives and use thereof” (C&C RESEARCH LABORATORIES, priority 2014, dated 2018)

What was measured:
STAT3 = STAT3 reporter gene assay (luciferase), LNCaP stable cell line pSTAT3-TA-luc, IL-6 stimulation; assay type: cell-based, human; conditions: Homo sapiens
Method in brief: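 LNCaP cells stably carrying pSTAT3-TA-luc were plated 24 h in 3% DCC-FBS medium, then given compound followed by IL-6 (10 ng/mL final) for 24 h at 37 °C. Luciferase was read from lysates, with CellTiter-Glo viability on a duplicate plate. Stimulated 0.1% DMSO wells served as uninhibited control.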

STAT1 = STAT1 reporter gene assay (luciferase), U2OS stable cell line pGL4-STAT1-TA-luc, IFN-γ stimulation; assay type: cell-based, human; conditions: Homo sapiens, IFN-γ 50 ng/mL, 8 hours, read-out: IC50 (μM) pSTAT1
Method in brief: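 U2OS cells stably carrying a STAT1-driven luciferase reporter were treated with serially diluted compounds plus IFN-γ (50 ng/mL final) for 8 h at 37 °C in 10% FBS medium. Luciferase read after lysis; parallel plate assessed for cytotoxicity by CellTiter-Glo.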

[1] = system: LNCaP prostate cancer cell line; assay: Cell growth inhibition assay, LNCaP (CellTiter-Glo); assay type: cell-based; conditions: Homo sapiens; LNCaP, 10,000 cells/well, medium with 10 ng/mL IL-6, 96 hours
Experimental: (§1) The inhibitory effects of the compounds of the present invention against the growth of cancer cells were evaluated as shown below. The cancer cell lines including prostate cancer cell lines (LNCaP, DU-145), stomach cancer cell line (NCI-N87), and breast cancer cell lines (MDA-MB-468) were cultured under the protocol provided by each supplier. A medium supplemented with 10 ng/mL of IL-6 was used for LNCaP, a prostate cancer cell line, when treated with a drug. Each type of cells to be used in experiments was sub-cultured in a 96-well plate by counting the exact number of cells using Tali™ Image-based Cytometer (Life Technologies). In a 96-well plate, DU-145 was employed with 3,000 cells/well; NCI-N87 was employed with 5,000 cells/well; and LNCaP and MDA-MB-468 were employed with 10,000 cells/well. The cells were treated with the compounds listed in Examples which were diluted in various concentrations. Upon completion of the compounds treatment, LNCaP, DU-145, NCI-N87 cells were cultured at 37° C. under 5% CO2 for 96 hours, and MDA-MB-468 cells were cultured at 37° C. in air for 96 hours. Subsequently, the cells were observed under microscope and drug precipitation and particular findings were investigated and recorded. And then, the 96-well plate was placed at room temperature for 30 minutes, added with 20 pt/well of CellTiter-Glo solution (Cat No. G7573, Promega) and shaken for 10 minutes, followed by being subjected to the measurement using PHERAstar™ microplate reader (BMG LABTECH) according to the supplier's general luminometer protocol. Wells where only culture liquid added without cell plating were used as a negative control, whereas wells where culture liquid containing 0.1% DMSO instead of the compounds listed in Examples were used as a positive control.

[2] = system: DU-145 prostate cancer cell line; assay: Cell growth inhibition assay, DU-145 (CellTiter-Glo); assay type: cell-based; conditions: Homo sapiens; DU-145, 3,000 cells/well, 96 hours
Experimental: as §1

[3] = system: NCI-N87 stomach cancer cell line; assay: Cell growth inhibition assay, NCI-N87 (CellTiter-Glo); assay type: cell-based; conditions: Homo sapiens; NCI-N87, 5,000 cells/well, 96 hours
Experimental: as §1

Compound	IC50 (STAT3)	IC50 (STAT1)	IC50 [1]	IC50 [2]	IC50 [3]
CC(C)(c1ccc2sc(C(=O)Nc3cc(Oc4ccc(Cl)cc4)cc(Cl)n3)cc2c1)S(C)(=O)=O [Example 63, N-(6-chloro-4-(4-chlorophenoxy)pyridin-2-yl)-5-(2-(methylsulfonyl)propan-2-yl)benzo[b]thiophene-2-carboxamide]	0.034 µM	> 50 µM	0.046 µM	0.032 µM	
CC(C)(c1ccc2sc(C(=O)Nc3cc(OCCN)cc(Oc4ccc(Cl)cc4)c3)cc2c1)S(C)(=O)=O [Example 94, N-(3-(2-aminoethoxy)-5-(4-chlorophenoxy)phenyl)-5-(2-(methylsulfonyl)propan-2-yl)benzo[b]thiophene-2-carboxamide]	5.2 µM	13.3 µM	> 1.1 µM	> 1.1 µM	
CC(C)(c1ccc(Cl)cc1)c1cc(Cl)cc(NC(=O)c2cc3cc(C(F)S(C)(=O)=O)ccc3s2)c1 (stereo not shown) [Example 25, N-(3-chloro-5-(2-(4-chlorophenyl)propan-2-yl)phenyl)-5-(fluoro(methylsulfonyl)methyl)benzo[b]thiophene-2-carboxamide]	0.034 µM	> 50 µM	0.072 µM	0.066 µM	
CC(C)(C)OC(=O)NCCOc1cc(NC(=O)c2cc3cc(C(C)(C)S(C)(=O)=O)ccc3s2)cc(Oc2ccc(Cl)cc2)c1 [Example 93, tert-butyl (2-(3-(4-chlorophenoxy)-5-(5-(2-(methylsulfonyl)propan-2-yl)benzo[b]thiophene-2-carboxamido)phenoxy)ethyl)carbamate]	0.072 µM	> 50 µM	0.26 µM	0.1 µM	
COc1cc(NC(=O)c2cc3cc(C(C)(C)S(C)(=O)=O)ccc3s2)cc(Oc2ccc(Cl)cc2)c1 [Example 46, N-(3-(4-chlorophenoxy)-5-methoxyphenyl)-5-(2-(methylsulfonyl)propan-2-yl)benzo[b]thiophene-2-carboxamide]	0.054 µM	> 50 µM	0.11 µM	0.07 µM	
CC(C)(c1ccc(Cl)cc1)c1cc(NC(=O)c2cc3cc(C(C)(C)S(C)(=O)=O)ccc3s2)n(C(C)(C)C)n1 [Example 88, N-(1-(tert-butyl)-3-(2-(4-chlorophenyl)propan-2-yl)-1H-pyrazol-5-yl)-5-(2-(methylsulfonyl)propan-2-yl)benzo[b]thiophene-2-carboxamide]	> 10 µM	> 50 µM	> 1.1 µM	> 1.1 µM	
CC(C)(c1ccc2sc(C(=O)Nc3cc(Cl)cc(C4(c5ccc(Cl)cc5)CC4)c3)cc2c1)S(C)(=O)=O [Example 97, N-(3-chloro-5-(1-(4-chlorophenyl)cyclopropyl)phenyl)-5-(2-(methylsulfonyl)propan-2-yl)benzo[b]thiophene-2-carboxamide]	0.025 µM	> 50 µM	0.028 µM	0.016 µM	
CC(C)(c1ccc2sc(C(=O)Nc3cc(Cl)nc(N4CCN5CCCCC5C4)c3)cc2c1)S(C)(=O)=O (stereo not shown) [Example 106, N-(2-chloro-6-(octahydro-2H-pyrido[1,2-a]pyrazin-2-yl)pyridin-4-yl)-5-(2-(methylsulfonyl)propan-2-yl)benzo[b]thiophene-2-carboxamide]	0.43 µM	8.5 µM			1.8 µM
CC(C)(c1ccc2sc(C(=O)Nc3cc(Cl)nc(OC4CC5C=CC4C5)c3)cc2c1)S(C)(=O)=O (stereo not shown) [Example 78, N-(2-(bicyclo[2.2.1]hept-5-en-2-yloxy)-6-chloropyridin-4-yl)-5-(2-(methylsulfonyl)propan-2-yl)benzo[b]thiophene-2-carboxamide]	0.05 µM	> 50 µM			0.2 µM
Cc1nn(C)c(C)c1Oc1cc(NC(=O)c2cc3cc(C(C)(C)S(C)(=O)=O)ccc3s2)cc(Cl)n1 [Example 111, N-(2-chloro-6-((1,3,5-trimethyl-1H-pyrazol-4-yl)oxy)pyridin-4-yl)-5-(2-(methylsulfonyl)propan-2-yl)benzo[b]thiophene-2-carboxamide]	1.3 µM	> 50 µM			2.4 µM
CC(C)(c1ccc2sc(C(=O)Nc3cc(Br)cc(Oc4ccc(Cl)cc4)c3)cc2c1)S(C)(=O)=O [Example 39, N-(3-bromo-5-(4-chlorophenoxy)phenyl)-5-(2-(methylsulfonyl)propan-2-yl)benzo[b]thiophene-2-carboxamide]	0.0089 µM	> 50 µM			0.031 µM
CC(C)(c1ccc2sc(C(=O)Nc3cc(Cl)nc(N4CCC5CCCCC5C4)c3)cc2c1)S(C)(=O)=O (stereo not shown) [Example 108, N-(2-chloro-6-(octahydroisoquinolin-2(1H)-yl)pyridin-4-yl)-5-(2-(methylsulfonyl)propan-2-yl)benzo[b]thiophene-2-carboxamide]	0.085 µM	> 50 µM			0.13 µM
CC(C)(c1cc(Cl)cc(NC(=O)c2cc3cc(C(C)(C)S(C)(=O)=O)ccc3s2)c1)c1cc(OC2CC2)cc(OC(F)(F)F)c1 [Example 15, N-(3-chloro-5-(2-(3-cyclopropoxy-5-(trifluoromethoxy)phenyl)propan-2-yl)phenyl)-5-(2-(methylsulfonyl)propan-2-yl)benzo[b]thiophene-2-carboxamide]	0.0057 µM	> 50 µM			0.0093 µM
Cn1cc(Oc2cc(NC(=O)c3cc4cc(C(C)(C)S(C)(=O)=O)ccc4s3)cc(Cl)n2)cn1 [Example 112, N-(2-chloro-6-((1-methyl-1H-pyrazol-4-yl)oxy)pyridin-4-yl)-5-(2-(methylsulfonyl)propan-2-yl)benzo[b]thiophene-2-carboxamide]	0.32 µM	18.9 µM			1 µM
COc1cc(Cl)cc(Oc2cc(NC(=O)c3cc4cc(C(C)(C)S(C)(=O)=O)ccc4s3)cc(Cl)n2)c1 [Example 70, N-(2-chloro-6-(3-chloro-5-methoxyphenoxy)pyridin-4-yl)-5-(2-(methylsulfonyl)propan-2-yl)benzo[b]thiophene-2-carboxamide]	0.024 µM	> 50 µM			0.057 µM
CC(C)(C)C1CCN(c2cc(NC(=O)c3cc4cc(C(C)(C)S(C)(=O)=O)ccc4s3)cc(Cl)n2)CC1 [Example 105, N-(2-(4-(tert-butyl)piperidin-1-yl)-6-chloropyridin-4-yl)-5-(2-(methylsulfonyl)propan-2-yl)benzo[b]thiophene-2-carboxamide]	0.049 µM	> 50 µM			0.087 µM
CC(C)(c1ccc2sc(C(=O)N3CCOc4c(Cl)cc(Oc5ccc(Cl)cc5)cc43)cc2c1)S(C)(=O)=O [Example 96, (8-chloro-6-(4-chlorophenoxy)-2,3-dihydro-4H-benzo[b][1,4]oxazin-4-yl)(5-(2-(methylsulfonyl)propan-2-yl)benzo[b]thiophen-2-yl)methanone]	0.19 µM	> 50 µM			1.5 µM
Cn1nccc1Oc1cc(NC(=O)c2cc3cc(C(C)(C)S(C)(=O)=O)ccc3s2)cc(Cl)n1 [Example 110, N-(2-chloro-6-((1-methyl-1H-pyrazol-5-yl)oxy)pyridin-4-yl)-5-(2-(methylsulfonyl)propan-2-yl)benzo[b]thiophene-2-carboxamide]	0.53 µM	44.8 µM			1.2 µM
CC(C)COc1cc(OC(F)(F)F)cc(C(C)(C)c2cc(Cl)cc(NC(=O)c3cc4cc(C(C)(C)S(C)(=O)=O)ccc4s3)c2)c1 [Example 11, N-(3-chloro-5-(2-(3-isobutoxy-5-(trifluoromethoxy)phenyl)propan-2-yl)phenyl)-5-(2-(methylsulfonyl)propan-2-yl)benzo[b]thiophene-2-carboxamide]	0.0021 µM	> 50 µM			0.011 µM
CC#CCOc1cc(OC(F)(F)F)cc(C(C)(C)c2cc(Cl)cc(NC(=O)c3cc4cc(C(C)(C)S(C)(=O)=O)ccc4s3)c2)c1 [Example 10, N-(3-(2-(3-(but-2-yn-1-yloxy)-5-(trifluoromethoxy)phenyl)propan-2-yl)-5-chlorophenyl)-5-(2-(methylsulfonyl)propan-2-yl)benzo[b]thiophene-2-carboxamide]	0.018 µM	> 50 µM			0.01 µM
